Test results taken from US10294228B2, “Breathing control modulating compounds, and methods of making and using same” (NEURAD LTD., priority 2015, dated 2019).

Tests used:
[1] = Polymorphic transformation by exposure to humidity; assay type: physicochemical; conditions: >80% humidity, three days, ambient temperature; confirmed by XRPD and DSC
Method: Approximately 10 mg of the solid as its initially obtained polymorphic form were placed in a 4 mL open vial. In a 20 mL vial, about 5 mL of distilled water were added and heated to about 50° C., then the vial was capped, and the contents were cooled for about 30 minutes at ambient temperature. Then the 20 mL vial was uncapped, the smaller vial was placed inside the bigger vial, the bigger vial was recapped, and the sample in the smaller vial was exposed and aged in an environment of approximately 80-95% relative humidity at ambient temperature for 3 days. Polymorphic transformation was confirmed by XRPD and DSC vs. that for the initially obtained polymorphic form.

[2] = test system: anesthetized rats; assay: Anesthetized rat spirometry screening assay (ventilatory activity, minute volume); assay type: in vivo; conditions: increase in minute volume (VE)
Method in brief: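 Urethane-anesthetized (1.5 g/kg i.v.) rats with tracheal cannula to pneumotachometer; minute volume derived from respiratory rate × tidal volume. Compounds given as i.v. bolus at 0.1 and/or 0.3 and/or 3 mg/kg, monitored at least 6 min; data as 30 s averages.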

polymorphic transformation on exposure to humidity [1]	Structure (SMILES)	change in vivo at 0.3 mg/kg ([2]; 0.3 mg/kg IV bolus, read-out: VE % Inc @ 0.3 mg/kg IV) [%]	change in vivo at 3 mg/kg ([2]; 3.0 mg/kg IV bolus, read-out: VE % Inc @ 3.0 mg/kg IV) [%]
converted to form Tos-B (31h-2)	CCCNc1nc(NC)nc2c(NCC(C)(C)O)nc(NC)nc12 [Compound 31h-1, 1-(2,6-Bis-methylamino-8-propylamino-pyrimido[5,4-d]pyrimidin-4-ylamino)-2-methyl-propan-2-ol]		
converted to form Mal-B (31d-2)	CCCNc1nc(NC)nc2c(NCC(C)(C)O)nc(NC)nc12 [Compound 31d-1, 1-(2,6-Bis-methylamino-8-propylamino-pyrimido[5,4-d]pyrimidin-4-ylamino)-2-methyl-propan-2-ol]		
	CC[C@H](C)Nc1nc(NC)c2nc(NC[C@H](C)O)nc(NC)c2n1 [Compound 105, (S)-1-[6-((S)-sec-Butylamino)-4,8-bis-methylamino-pyrimido[5,4-d]pyrimidin-2-ylamino]-propan-2-ol]	14	120
